Reference: patent US6911470B1, “Polyoxometalate compounds as antiviral agents” (priority 1988, dated 2005)

What was measured:
[1] = Comparison of toxicity of polyoxometalate compounds in mice (mortality, haematology); assay type: in vivo; design: MCV (mean corpuscular volume): unit not given here; settings: BID × 6, 60 mkd i.p.
Text: Comparison of Toxicity of Polyoxometalate Compounds Mice.
In vivo antiviral experiments. […] Treatment was continued daily for 6 or 10 days.

[2] = tested on: human granulocyte-macrophage precursor cells; assay type: cell-based
Text: Preparation of Cells. Human bone marrow cells were collected by aspiration from the posterior iliac crest of normal healthy volunteers, treated with heparin and the mononuclear population separated by Ficoll-Hypaque gradient centrifugation. Cells were washed twice in Hanks balanced salt solution, counted with a hemacytometer and their viability was >98% as assessed by trypan blue exclusion.
Assay of Colony-Forming Unit Granulocyte-Macrophage (CFU-GM) for Drug Cytotoxicity. The culture assay for CFU-GM was performed using a bilayer soft-agar method as recently described (Sommadossi et al, Antimicrob. Agents Chemother. 31, 452-454, 1987). McCoy 5A nutrient medium supplemented with 15% dialyzed fetal bovine serum (heat inactivated at 56° C. for 30 min.) (Gibco Laboratories, Grand Island, N.Y.) was used in all experiments. This medium was completely lacking in thymidine and uridine. Cells were cloned in 0.3% agar in the presence of increasing concentrations of the modulating compound or in medium alone (control). After 14 days of incubation at 37° C. in a humidified atmosphere of 5% CO2 in air, colonies (≧50 cells) were counted using an inverted microscope.
The toxicities of a variety of polyoxometalates with respect to human bone marrow cells (human granulocyte-macrophage precursor cells) were assessed.

[3] = tested on: Vero cells; assay: Cytotoxicity assay in Vero cells; assay type: cell-based; settings: Table 2; >100 μM = Nontoxic; read-out: IC50 Toxicity Vero Cells
Text: Cell culture assays for heroes simplex viruses. Mycoplasma-free Vero cells, obtained from Flow Laboratory (McLean, Va.), were used for the plaque assays. The methodologies for the plaque reduction and cytotoxicity assays have been previously described (Schinazi et al, Antimicrob. Agents Chemother. 22, 499-507, 1982).

[4] = tested on: HSV-1; assay: Plaque reduction assay for herpes simplex viruses in Vero cells; assay type: cell-based, herpes simplex virus type 1; settings: Table 2; read-out: EC-50 HSV-1
Procedure: (§1) Cell culture assays for heroes simplex viruses. Mycoplasma-free Vero cells, obtained from Flow Laboratory (McLean, Va.), were used for the plaque assays. The methodologies for the plaque reduction and cytotoxicity assays have been previously described (Schinazi et al, Antimicrob. Agents Chemother. 22, 499-507, 1982). Median-effect method. Dose-effect relationships were analyzed by the median-effect equation (Chou et al, Adv. Enz. Regul. 22, 27-55, 1984). The slope (m) and median effective and inhibitory concentration (EC50 and IC50) values were obtained by using a computer program developed by Chou and Chou (Chou et al, Elsevier-Biosoft, Elsevier Science Publishers, Cambridge, U.K., 1985).

[5] = tested on: HSV-2; assay: as above; assay type: cell-based, herpes simplex virus type 2; settings: Table 2; read-out: EC-50 HSV-2
Procedure: as §1

[6] = molecular target: T1, HIV-1 reverse transcriptase (Human immunodeficiency virus type 1 group M subtype B, UniProt P04585); assay: Evaluation of compounds on purified retroviral RT (cell-free, virion-derived); assay type: biochemical; settings: Table 2; read-out: EC-50 Cell-Free RT (virion-derived)
T1 construct: HIV-1 RT was isolated from detergent disrupted virions; made in house; host or cells: virions pelleted from culture fluid of HIV-1-infected PHA-stimulated human PBMC; DEAE-cellulose and phosphocellulose chromatography
Procedure: Evaluation of compounds on purified retroviral RT. HIV-1 RT was isolated from detergent disrupted virions obtained from the cell-free supernatant of infected PHA-stimulated PBMC. The enzyme was purified by passing the extract through ion-exchange chromatography columns, as described previously (Eriksson et al, Antimicrob. Agents Chemother. 31, 600-604, 1977. Briefly, 750 ml of culture fluid harvested from HIV-1-infected PBMC were ultracentrifuged to pellet the virus. The pellet was dissolved in buffer A [50 mM Tris-HCl, pH 7.9/0.25% Nonidet P-40/5 mM dithiothreitol/20% (vol/vol) glycerol] containing 1 mM EDTA, and freeze-thawed four times. After clarification by centrifugation, the enzyme was partially purified from the supernatant by passing the extract through a DEAE-cellulose column (Whatman DE-52; 2.6×15 cm) previously equilibrated with buffer B (50 mM Tris-Cl, pH 7.9, 50 mM KCl, 1 mM EDTA, 1 mM dithiothreitol, 20% glycerol). Elution was performed using a linear gradient 50-500 mM KCl in buffer B. Fractions containing enzyme activity were dialyzed against buffer B and were further purified on a phosphocellulose column (Whatman P-11) using a linear KCl (50-500 mM) gradient in buffer B. The peak fractions were pooled and dialyzed against buffer B. The enzyme was characterized as HIV-1 reverse transcriptase based on its cation, salt, pH, and template requirements according to previous descriptions (Eriksson et al, Antimicrob. Agents Chemother. 31, 600-604, 1977). The standard reaction mixture was used to evaluate the inhibitory effect of the drugs, as previously described (Eriksson et al, Antimicrob. Agents Chemother. 31, 600-604, 1977). Briefly, the reaction mixtures (final volume 100 μl) contained 100 mM Tris-HCl, pH 8.0, 50 mM KCl, 2 mM MgCl2, 5 mM DTT, 400 ug/ml bovine serum albumin, 3 μg/ml (rA)·(dT)12-18 and 1 μM of [^3H]TTP (specific activity 82.3 Ci/mmol). The reactions were started by the addition of 10 μl of partially purified RT, incubated at 37° C. for 60 min., and processed as previously described (Eriksson et al, Antimicrob. Agents Chemother. 31, 600-604, 1977).
Median-effect method. Dose-effect relationships were analyzed by the median-effect equation (Chou et al, Adv. Enz. Regul. 22, 27-55, 1984). The slope (m) and median effective and inhibitory concentration (EC50 and IC50) values were obtained by using a computer program developed by Chou and Chou (Chou et al, Elsevier-Biosoft, Elsevier Science Publishers, Cambridge, U.K., 1985).

[7] = tested on: Friend, Spleen (EY-10); assay: UV/XC assay for murine retroviruses in SC-1 cells; assay type: cell-based, murine retrovirus; settings: Table 2; read-out: EC-50 Friend, Spleen (EY-10)
Procedure: UV/XC Assay for Murine Retroviruses Cells. Mouse embryo fibroblasts (SC-1) and XC cells were obtained from the American Type Culture Collection, Rockville, Md. The XC cell line was derived from a transplantable tumor induced in newborn White-Weston rats by the intramuscular injection of the Prague strain of Rous sarcoma virus. […] The cells were maintained in Eagle's minimum essential medium with Hanks balanced salt solution, supplemented with penicillin (100 U/ml), streptomycin (100 μg/ml), sodium bicarbonate (24 mM), Hepes (25 mM), and either 2 (maintenance) or 10 (growth) percent inactivated newborn or fetal calf serum.
Virus quantitation by UV-XC assay. The XC test (Rowe et al, Virology 42, 1136-1139, 1970) is a plaque-type of assay which tests for the presence and titer of B- and N-tropic murine leukemia viruses. Because these viruses produce no overt signs of infection of SC-1 mouse cells, it is necessary to overlay the virus producing culture with an indicator cell line, XC. The number of syncytia that are produced is a direct measure of the virus titer in FFU.
Six-well plates were seeded with 1×10^5 SC-1 mouse cells on the first day. On the following day the medium was removed and the inoculum (0.2 ml) was added in medium containing polybrene (4 μg/ml). For determining the antiviral activity of the compounds in culture, the virus dilution selected produced in untreated cultures about 80 foci per well. After 1 hour, the virus was removed and various concentrations of the drug were added. The plates were replenished with medium on the third and fifth days. The medium was removed on the eighth day and the cells exposed to UV irradiation (60 erg/mm^2 per sec) for 30 seconds. Medium containing 10^6 XC cells was then added to each plate. On the eleventh day, the plates were fixed with 10% buffered Formalin and stained with crystal violet. Comparison of the number of foci to those found in virus-infected cells receiving no drug allowed determination of whether a drug at a particular concentration was effective. Control cells without virus but receiving the drug provided an estimate of the drug's toxic effects as quantitated by using trypan blue staining.

[8] = tested on: human PBM cells; assay: Cytotoxicity assay on uninfected PHA stimulated human PBMC (trypan blue); assay type: cell-based; settings: Table 2; >100 μM = Nontoxic; read-out: IC50 Toxicity PBM Cells
Procedure: Cells. […] PBS), and pelleted at 300×g for 10 minutes. […] Cytotoxicity assay. The drugs were evaluated for their potential toxic effects on uninfected PHA stimulated human PBMC. Flasks were seeded so that the final cell concentration was 2×10^5 cells/ml. The cells were cultured with and without drug for 6 days, at which time aliquots were counted for cell viability, as assessed by the trypan blue dye-exclusion method using a hemacytometer. The median inhibitory concentration (IC50) was calculated using the median effect method (Chou et al, Elsevier-Biosoft, Elsevier Science Publishers, Cambridge, U.K., 1985; Chou et al, Adv. Enz. Regul. 22, 27-55, 1984). Median-effect method. Dose-effect relationships were analyzed by the median-effect equation (Chou et al, Adv. Enz. Regul. 22, 27-55, 1984). The slope (m) and median effective and inhibitory concentration (EC50 and IC50) values were obtained by using a computer program developed by Chou and Chou (Chou et al, Elsevier-Biosoft, Elsevier Science Publishers, Cambridge, U.K., 1985).

Row | Substance | Hct (hematocrit) ([1]; bled on day 17) [%] | Hgb (hemaglobin) ([1]; bled on day 17) [g/dL] | MCH ([1]; bled on day 17) [pg] | MCHC (mean corpuscular hemoglobin concentration) ([1]; bled on day 17) [g/dL] | MCV (mean corpuscular volume) ([1]; bled on day 17) | PLT (platelates) (×1000) ([1]; bled on day 17) | RBC (×1000000) ([1]; bled on day 17) | RDW (width of red cells) ([1]; bled on day 17) [%] | WBC (×1000) ([1]; bled on day 17) | Mortality ([1]; dead/total) | toxicity to human bone marrow cells (order of toxicity, FIG. 6) [2] | IC50 [3] [µM] | EC50 [4] [nM] | EC50 [5] [nM] | EC50 [6] [µM] | EC50 [7] [nM] | IC50 [8] [µM]
1 | (NH4)4[SiW12O40] [NH4ST] | 17.47 ± 7.08 | 6.42 ± 2.39 | 17.6 ± 4.64 | 37.92 ± 9.82 | 43.38 ± 0.51 | 246.46 ×1000 | 3.76 ± 1.57 ×1000000 | 36.76 ± 2.63 | 7.18 ± 3.9 ×1000 | 0/5 | NH4BT (least toxic)<BT and NH4ST<AZT and ST | – | – | – | – | – | –
2 | (HisH^+)p(H^+)4-pST, where p=1-4 [(HISH^+)nH^+(4−n)ST] | – | – | – | – | – | – | – | – | – | – | – | > 100 | 950 | 870 | 22.3 | 920 | 182
